From patent US12691095B2, “Modulators of TNF-alpha activity” (Forward Therapeutics, Inc., priority 2024, dated 2026)

What follows are compounds tested against T1, TNF-α (Homo sapiens, UniProt P01375) (assay: TNF-α Induced THP 1 dual Cellular Assay). Details: THP1 dual cell reporter cells stimulated with TNF-α, 24 hrs, secreted alkaline phosphatase (QUANTI-Blue, 620 nm).
T1 construct: purchased R&D 210-TA-020/CF
Format: cell-based
Protocol: Test articles were diluted in DMSO and serially diluted into 384 well assay plate (Corning 3765), at final concentrations ranging from […] to 0.5 nM. THP1 dual cell reporter cells were added at a final density of 10,000 cell per well in assay media [DMEM (Gibco, cat #21063-029), 10% fetal bovine serum (ExcelBio, cat #FND500), 1% Penicillin-Streptomycin (Solarbio, cat #P1400-100]. TNF-α (R&D 210-TA-020/CF) was then added to the assay plate at a final concentration of […]. This plate was then incubated for 24 hrs at 37° C. and 5% CO2. Secreted alkaline phosphatase expression was then measured using QUANTI-Blue™ (Invivogen), according to manufacturer instructions and read on an Envision microplate reader at 620 nm.
Inhibition data for test compound over a range of concentration was plotted as percentage inhibition of the test compound (100%=maximum inhibition). IC50 values were determined after correcting for background [(sample read-mean of low control)/(mean of high control-mean of low control)] whereby the low control is DMSO without stimulation and high control is DMSO with stimulation. The IC50 is defined as the concentration of test compound which produces 50% inhibition and was quantified using the 4-parameter logistic equation to fit the data.

T1 sequence (P01375 77-233 limits assumed): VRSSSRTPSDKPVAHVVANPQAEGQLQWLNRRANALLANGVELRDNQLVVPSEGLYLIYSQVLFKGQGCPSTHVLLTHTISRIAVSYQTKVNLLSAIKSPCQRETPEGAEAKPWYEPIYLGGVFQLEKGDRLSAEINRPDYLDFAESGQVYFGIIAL

Compound | IC50
[2H]C([2H])([2H])N1C(=O)c2cccc(F)c2[C@H]2C[C@@H]1c1nc3ccc(-c4ccc(P(C)(C)=O)cc4)cc3n12 [Example 16, (7R,14R)-11-(4-(dimethylphosphoryl)phenyl)-1-fluoro-6-(methyl-d3)-6,7-dihydro-7,14-methanobenzo[f]benzo[4,5]imidazo[1,2-a][1,4]diazocin-5(14H)-one] | ≤ 100 nM
[2H]C([2H])([2H])N1C(=O)c2cccc(F)c2[C@H]2C[C@@H]1c1nc3ccc(-c4ccc(P(C)(C)=O)cc4F)cc3n12 [Example 17, (7R,14R)-11-(4-(dimethylphosphoryl)-2-fluorophenyl)-1-fluoro-6-(methyl-d3)-6,7-dihydro-7,14-methanobenzo[f]benzo[4,5]imidazo[1,2-a][1,4]diazocin-5(14H)-one] | ≤ 100 nM
[2H]C([2H])([2H])N1C(=O)c2cccc(Br)c2[C@H]2C[C@@H]1c1nc3ccc(-c4ccc(P(C)(C)=O)c(F)c4)cc3n12 [Example 18, (7R,14R)-1-bromo-11-(4-(dimethylphosphoryl)-3-fluorophenyl)-6-(methyl-d3)-6,7-dihydro-7,14-methanobenzo[f]benzo[4,5]imidazo[1,2-a][1,4]diazocin-5(14H)-one] | ≤ 100 nM
[2H]C([2H])([2H])N1C(=O)c2cccc(Br)c2[C@H]2C[C@@H]1c1nc3ccc(-c4ccc(P(C)(C)=O)cc4F)cc3n12 [Example 19, (7R,14R)-1-bromo-11-(4-(dimethylphosphoryl)-2-fluorophenyl)-6-(methyl-d3)-6,7-dihydro-7,14-methanobenzo[f]benzo[4,5]imidazo[1,2-a][1,4]diazocin-5(14H)-one] | ≤ 100 nM
[2H]C([2H])([2H])N1C(=O)c2cccc(F)c2[C@H]2C[C@@H]1c1nc3cc(F)c(-c4ccc(P(C)(C)=O)cc4)cc3n12 [Example 20, (7R,14R)-11-(4-(dimethylphosphoryl)phenyl)-1,10-difluoro-6-(methyl-d3)-6,7-dihydro-7,14-methanobenzo[f]benzo[4,5]imidazo[1,2-a][1,4]diazocin-5(14H)-one] | ≤ 100 nM
[2H]C([2H])([2H])N1C(=O)c2cccc(F)c2[C@H]2C[C@@H]1c1nc3cc(F)c(-c4ccc(P(C)(C)=O)nc4)cc3n12 [Example 21, (7R,14R)-11-(6-(dimethylphosphoryl)pyridin-3-yl)-1,10-difluoro-6-(methyl-d3)-6,7-dihydro-7,14-methanobenzo[f]benzo[4,5]imidazo[1,2-a][1,4]diazocin-5(14H)-one] | ≤ 100 nM

Now from value to compound:

IC50 | Compound
≤ 100 nM | [2H]C([2H])([2H])N1C(=O)c2cc(F)cc(F)c2[C@H]2C[C@@H]1c1nc3ccc(-c4ccc(P(C)(C)=O)c(F)c4)cc3n12 [Example 13, (7R,14R)-11-(4-(dimethylphosphoryl)-3-fluorophenyl)-1,3-difluoro-6-(methyl-d3)-6,7-dihydro-7,14-methanobenzo[f]benzo[4,5]imidazo[1,2-a][1,4]diazocin-5(14H)-one]
≤ 100 nM | [2H]C([2H])([2H])N1C(=O)c2cccc(F)c2[C@H]2C[C@@H]1c1nc3ccc(-c4ccc(P(C)(C)=O)c(F)c4F)cc3n12 [Example 14, (7R,14R)-11-(4-(dimethylphosphoryl)-2,3-difluorophenyl)-1-fluoro-6-(methyl-d3)-6,7-dihydro-7,14-methanobenzo[f]benzo[4,5]imidazo[1,2-a][1,4]diazocin-5(14H)-one]
≤ 100 nM | [2H]C([2H])([2H])N1C(=O)c2ccc(F)c(F)c2[C@H]2C[C@@H]1c1nc3ccc(-c4ccc(P(C)(C)=O)c(F)c4)cc3n12 [Example 15, (7R,14R)-11-(4-(dimethylphosphoryl)-3-fluorophenyl)-1,2-difluoro-6-(methyl-d3)-6,7-dihydro-7,14-methanobenzo[f]benzo[4,5]imidazo[1,2-a][1,4]diazocin-5(14H)-one]
